Columns and labels:
ct-DNA [1] = test: Thermal denaturation of ct-DNA (∆Tm); assay type: binding, calf; settings: r = 0.1, pH 5.0, sodium cacodylate buffer, I = 50 mM
Experimental: (§1) Experiments were conducted in an aqueous buffer solution (pH = 7.0 or pH= 5.0, I = 0.05 M, sodium cacodylate buffer). For the UV-Vis spectra were used Varian Cary 100 Bio spectrometer, for fluorescence spectra we used the Varian Cary Eclipse fluorimeter and for CD spectra we used the JASCO J815 spectropolarimeter, all conducted at 25.0 °C using appropriate quartz cuvettes (path length: 1 cm).
(§2) Polynucleotides were purchased as noted: poly dAdT-poly dAdT, poly dGdC-poly dGdC, poly A-poly U (ds-RNA), (Sigma-Aldrich, Schnelldorf, Germany), calf thymus (ct)-DNA (Sigma-Aldrich, Schnelldorf, Germany) and dissolved in sodium cacodylate buffer, I = 0.05 M, pH = 7.0. The ct-DNA was sonicated and filtered through a 0.45 µm filter to obtain mostly short (ca. 100 base pairs) rod-like B-helical DNA fragments. The concentration of DNA or RNA was determined spectroscopically as the c(nucleobase) using producer-provided molar extinction coefficients.
Thermal denaturation of ds-DNA, ds-RNA and their complexes with studied compounds was performed by monitoring the absorption change at 260 nm as a function of temperature. Tm values are the midpoints of the transition curves determined from the maximum of the first derivative and checked graphically by the tangent method. The ∆Tm values were calculated by subtracting the Tm of the free nucleic acid from the Tm of the complex. Every ∆Tm value here reported was the average of at least two measurements. The error in ∆Tm is ± 0.5 °C.

ct-DNA [2] = test: Fluorimetric titration with ct-DNA, Scatchard equation; assay type: binding, calf; parameters: key: The changes were too small to allow an accurate calculation of the binding constant; settings: I = 0.05 M
Experimental: as §1, §2
Fortunately, strong emission from the compounds studied allowed fluorimetric titrations to be performed at much lower concentrations of the dyes (c = 5 × 10^−8 M), thus preventing precipitation of non-methylated 1 or 2, and allowing for the collection of numerous data points at excess of DNA/RNA binding sites over c(dye). […] Intriguingly, mixed sequence ct-DNA caused emission quenching of 1M at an excess of dye over ct-DNA (r > 0.1), and such quenching could be attributed to aggregation of 1M along DNA, while at an excess of ct-DNA over dye (r << 0.1), emission increased. The emission of 2M was indiscriminately quenched by all ds-DNA/RNA (Figure 2d).
(§3) Processing of fluorimetric titrations by means of the Scatchard equation [56, 57] yielded binding constants (Table 2). […] Affinities of 1 and 2 toward BSA were the same at both pH values, supporting the conclusion that neutral forms of 1 and 2 were bound.

BSA = BSA (Bos taurus, UniProt P02769); test: Fluorimetric titration with BSA, Scatchard equation; assay type: binding, bovine; settings: pH 7, sodium cacodylate buffer, I = 0.05 M; read-out: Binding constant logKs BSA (converted)
Experimental: as §1
As the pharmacokinetic properties of small molecules often depend on a binding affinity toward transport proteins (such as serum albumin), we performed fluorimetric titrations with BSA. The emission of both 1M and 2M (Supplementary Information, Figures S15 and S16), was strongly quenched, with compound 2M showing a lower affinity in comparison to ds-DNA/RNA, while the affinity of 1M was similar to that towards ds-DNA/RNA (Table 2).
as §3

[3] = pKa from pH dependence of UV/vis spectrum; assay type: physicochemical; settings: water (0.001 M HCl in miliQ water, titrated with NaOH), UV/vis spectra vs pH in water, c = 2.0 × 10^−5 M
Solubility in water = assay type: physicochemical
A549 cells = test: MTT cell viability assay, A549, with or without UV light; assay type: cell-based, human; settings: A549
Experimental: Cells. Commercially available from American Type Culture Collection (ATCC), human epithelial lung adenocarcinoma A549 (ATCC® CCL-185™) and human normal lung fibroblast WI-38 (ATCC® CCL-75™) were grown according to supplier’s conditions, namely in Dulbecco Modified Eagle’s Medium (DMEM, Sigma Aldrich, St. Louis, MO, USA) supplemented with 10% of fetal bovine serum (FBS, Sigma Aldrich, USA). Cells were incubated in the cell incubator (Thermo Fischer Scientific, Waltham, MA, USA) at 37 °C and 5% CO2 in a humidified atmosphere.
Cell viability assay. In order to obtain a 10 mM stock solution chemical compounds (2M, 1, and 1M) were sterilely diluted in an appropriate volume of dimethyl sulfoxide solution (DMSO, Gram-Mol, Zagreb, Croatia). Solutions were kept in the dark and stored at 4 °C. The cytotoxic effects of each compound were assayed on A549 and WI-38 cells. […] Briefly, cells were seeded in 96-well tissue culture plates and 24 h later treated with 2M, 1, or 1M in the concentration range of 10–0.1 μM. Cells treated with the same dilutions of DMSO represented the control, while cells treated only with DMEM (10% FBS) represented the negative control. After 72 h, the media was removed, MTT solution was added into each well, and the plate was incubated (37 °C, 5% CO2) for 3 h. The resulting MTT-formazan products were dissolved using DMSO, and their absorbance at 600 nm was measured using a microplate reader.
For determining the effect of UV exposure, cells were seeded on two plates and treated with working solutions of the respective compounds as previously described. Plates were incubated (37 °C, 5% CO2) for 90 min, allowing the compounds to enter the cells. Then, one plate was exposed to UV light (Luzchem reactor, 350 nm, 8 lamps, in total 8 W, dose 50.6 mWm^−2; ~18 cm lamp to cell-plate) for 5 min, 3 days in a row at the same time each day, while the other plate was left in the cell incubator in the dark and served as a control.

Sequence of BSA (P02769 25-607): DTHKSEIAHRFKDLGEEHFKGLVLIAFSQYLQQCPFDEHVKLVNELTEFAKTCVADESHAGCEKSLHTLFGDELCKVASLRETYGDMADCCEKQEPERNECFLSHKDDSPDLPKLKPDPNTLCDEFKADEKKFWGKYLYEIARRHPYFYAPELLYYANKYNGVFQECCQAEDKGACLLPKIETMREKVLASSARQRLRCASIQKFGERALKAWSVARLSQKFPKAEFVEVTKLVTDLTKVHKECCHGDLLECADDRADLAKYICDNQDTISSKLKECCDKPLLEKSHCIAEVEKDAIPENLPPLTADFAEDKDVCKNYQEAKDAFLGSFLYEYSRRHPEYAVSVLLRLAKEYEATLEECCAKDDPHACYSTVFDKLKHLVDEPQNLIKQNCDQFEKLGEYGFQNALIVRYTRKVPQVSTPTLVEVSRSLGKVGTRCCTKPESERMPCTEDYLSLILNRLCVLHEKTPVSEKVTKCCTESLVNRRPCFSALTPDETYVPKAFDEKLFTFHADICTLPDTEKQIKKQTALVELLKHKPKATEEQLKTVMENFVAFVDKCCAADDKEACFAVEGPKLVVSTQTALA

c1cc(-c2cc3ccc4cc(-c5ccncc5)cc5ccc(c2)c3c45)ccn1 [compound 2]
∆Tm ct-DNA (ct-DNA [1]): 1.5 °C
Binding constant logKs ct-DNA (ct-DNA [2]; pH 5, sodium cacodylate buffer): 5.7
Binding constant logKs ct-DNA (ct-DNA [2]; pH 7, sodium cacodylate buffer): b
Kd (BSA): 5.01 µM
pKa [3]: < 4
Solubility in water (Solubility in water): poorly soluble in water
Cytotoxic effect (cell survival, Figure S25) (A549 cells): no cytotoxic effect

Reference: article PMC9696974 (Pharmaceutics, 2022)
